Measured values published in patent US12415939B2, “Nano-adhesive and surface primer compound and use thereof” (The Regents of the University of California, priority 2015, dated 2025).

How the values were obtained:
[1] = QCM-D adsorption of zwitterionic molecules; type: physicochemical; conditions: silica
Source text: Quartz Crystal Microbalance (QCM): Adsorption of the molecules on different surfaces such as silica, SiO2, (FIGS. 7A-7E) and titania, TiO2, (FIGS. 8A-8E) was also explored by the quartz crystal microbalance (QCM) and confocal fluorescence microscopy after rhodamine staining (FIG. 27A-27B). Quartz crystal microbalance with dissipation (QCM-D): A “static cell” (often called “Open Model”) QCM-D (Q-Sense, Biolin Scientific) was employed to qualitatively show the adsorption of the zwitterionic molecules onto mineral and metal oxide surfaces. 50 μl of 5 mM zwitterionic solution was deposited onto TiO2 and SiO2 surface, respectively, in DI H2O (100 μl) using a static cell via two-step adsorption. […] However, a quantitative discussion regarding the adsorbed mass (frequency shift) and the viscoelastic properties (dissipation) of the adsorbed “soft” layers is challenging because the mass of the zwitterionic molecules cannot be separated from the mass of adsorbed water. […]
Quartz crystal microbalance with dissipation (QCM-D) is an extension to the QCM technique developed by Q-Sense® and can be used to determine the rigidity/softness and the viscoelastic properties of the adsorbed material. The QCM quartz crystal was coated with different rigid materials (e.g., metals, polymers, dielectrics) and the adsorption kinetics can be monitored on these materials in liquid environment. […]

[2] = OFET characterization (saturation hole mobility); conditions: Au source and drain electrodes
Source text: The OFETs were fabricated onto nano-grooved SiO2 substrates prepared by rubbing n^++Si (500 μm)/SiO2 (300 nm) substrate (International Wafer Services Co.) with a diamond lapping disc with particle sizes of 100 nm (Allied High Tech Products Inc.) as described in detail in the previous reports. The Ni (5 nm)/Au (50 nm) source and drain electrodes were patterned on the SiO2 dielectrics through a conventional photolithography process. For OFETs with Ni source and drain electrodes, an additional Ni (10 nm) layer was deposited on top of the pre-deposited Au electrodes. All metal electrodes were deposited by electron beam evaporation at 7×10^−7 Torr. Then, the substrates were sonicated in acetone and isopropanol for cleaning, and were kept in an oven at >100° C. for overnight. After ultraviolet/ozone treatment of pre-cleaned nano-grooved SiO2 substrates for 10 min, the substrates were passivated with the Z-Cat-Ben or Z-Cat-Ben-F SAM by dropping SAM water solution (5 mM) onto the substrates for ˜1 min. The substrates were subsequently rinsed with deionized water for ˜1 min, and were kept in a low vacuum for 10 min to remove residual water. The PCDTPT (1-Material Inc.) was then cast from a chlorobenzene solution (0.25 mg mL^−1) through the sandwich casting in a nitrogen-filled glove box. The devices were then cured at 200° C. for 1 min prior to measurements, and were tested using a probe station (Signatone Co.) in a nitrogen-filled glove box. Data were collected by a Keithley 4200 system.
The field-effect mobilities in the saturation regime were extracted using the following equation, IDS=(W/2L)Cμ(VGS−VT)^2 (7) where, W is the channel width, L is the channel length, C is the gate dielectric capacitance per unit area, μ is the carrier mobility in the saturation regime, IDS is the drain-source current, and VGS is the gate-source voltage. Channel width/length is 1000/200 μm for the devices used in this study. Transistor Characteristics of OFETs with Z-Cat-Ben and Z-Cat-Ben-F: Contact Angle Measurements: […]

C[N+](C)(CCCc1ccccc1)CCOP(=O)([O-])OCCCc1ccc(O)c(O)c1 [Z-Cat-Ben]
adsorbed mass ([1]; 5 mM, zero applied pressure): 85 ng/cm^2 | adsorbed layer thickness ([1]; Voigt model): 1 nm | saturation hole mobility μ [2]: 22±4 cm^2 V^−1 s^−1
